Peptide text beside a SMILES is read from it. * marks the point of attachment. Biotin = O=C1N[C@H]2[C@H](CS[C@H]2CCCCC(=O)*)N1
Assays:
[1] = system: T98G human glioblastoma cells; assay: Peptide incorporation into T98G cells (immunocytochemistry, cell counting); format: cell-based; settings: 6 hours; for Peptide incorporation (% of cells): T98G cells, 10 µM biotinylated peptide, Alexa-labeled avidin/streptavidin fluorescence microscopy, minimum 200 cells per experiment, mean ± S.E.M., triplicated
Procedure: (§1) Cells containing the biotinylated peptide were detected using Alexa-labeled avidin (green fluorescence) and those displaying a normal or a destroyed MT network were detected with an anti-tubulin antibody (red fluorescence) ( Figure 1A-B ). Then, we counted a minimum of 200 cells per slide containing or not the peptide, and with a normal or destroyed microtubule network ( Figure 1C ). As illustrated on Figure 1A glioblastoma cells contain a rich MT network. […] Cells were plated on cover slips and cultured in media containing biotinylated peptides (10 μM) for 6 hours. […] The cells were then incubated during 10 min in a 0.5% triton X-100 permeabilization solution, and washed 3 times in PBS. Next, they were incubated in a blocking solution (PBS 5% BSA) for 15 min, then incubated with mouse anti-ß-tubulin antibody (Sigma) 1/200 overnight. Tubulin and biotinylated peptides were localized using respectively Alexa 568 nm anti-mouse antibody and streptavidin Alexa 488 nm (Molecular Probes) 1/200 for 1 hour, followed by washing in PBS. […] Sigma) for 5 min, washed twice with PBS, then cover slips were mounted with an antifading solution. Observations were performed with an Olympus confocal microscope (BX50) using Fluoview.3.1. Software or a Leica DMI6000 inverted microscope and analyzed with Metamorph 7.1.7.0. software. We counted cells containing the peptide and cells displaying a destroyed MT network. Experiments were repeated at least three times, and a minimum of 200 cells was scored during each experiment.

[2] = system: T98G human glioblastoma cells; assay: Disintegration of the microtubule network in T98G cells (anti-tubulin immunostaining, cell counting); format: cell-based; settings: 6 hours; for Disintegration of MT (% of cells): T98G cells, 10 µM biotinylated peptide, anti-tubulin immunostaining, minimum 200 cells per experiment, mean ± S.E.M., triplicated
Procedure: as §1

Structure (SMILES)	Peptide incorporation (% of cells) [1]	Disintegration of MT (% of cells) [2]	Cell penetration / internalization in T98G cells (in words) ([1]; 10 µM, immunocytochemistry, compared to original NFL-TBS.40-63)	Effect on MT network of T98G / glioma cells (in words) ([2]; 10 µM, immunocytochemistry)
CC(C)C[C@H](NC(=O)[C@H](CO)NC(=O)[C@H](CO)NC(=O)[C@H](CO)NC(=O)[C@@H](NC(=O)[C@@H]1CCCN1C(=O)[C@H](C)NC(=O)[C@H](CO)NC(=O)[C@H](Cc1ccc(O)cc1)NC(=O)[C@H](CO)NC(=O)[C@H](CO)NC(=O)[C@H](Cc1ccc(O)cc1)NC(=O)CCCC[C@@H]1SC[C@@H]2NC(=O)N[C@@H]21)C(C)C)C(=O)N[C@@H](CO)C(=O)N[C@H](C(=O)N[C@@H](CCCNC(=N)N)C(=O)N[C@@H](CCCNC(=N)N)C(=O)N[C@@H](CO)C(=O)N[C@@H](Cc1ccc(O)cc1)C(=O)N[C@@H](C)C(=O)N[C@@H](CO)C(=O)N[C@@H](CO)C(=O)N[C@@H](CO)C(=O)NCC(=O)N[C@@H](CO)C(N)=O)C(C)C [Ser19Ala] (Biotin-YSSYSAPVSSSLSVRRSYASSSGS-NH2)	5.2±0.7 % of cells	14.5±2.7 % of cells		
CC(C)C[C@H](NC(=O)[C@H](CO)NC(=O)[C@H](CO)NC(=O)[C@H](CO)NC(=O)[C@@H](NC(=O)[C@@H]1CCCN1C(=O)[C@H](C)NC(=O)[C@H](CO)NC(=O)[C@H](Cc1ccc(O)cc1)NC(=O)[C@H](CO)NC(=O)[C@H](CO)NC(=O)[C@H](Cc1ccc(O)cc1)NC(=O)CCCC[C@@H]1SC[C@@H]2NC(=O)N[C@@H]21)C(C)C)C(=O)N[C@@H](CO)C(=O)N[C@H](C(=O)N[C@@H](CCCNC(=N)N)C(=O)N[C@@H](CCCNC(=N)N)C(=O)N[C@@H](CO)C(=O)N[C@@H](Cc1ccc(O)cc1)C(=O)N[C@@H](CC(=O)O)C(=O)N[C@@H](CO)C(=O)N[C@@H](CO)C(=O)N[C@@H](CO)C(=O)NCC(=O)N[C@@H](CO)C(N)=O)C(C)C [Ser19Asp] (Biotin-YSSYSAPVSSSLSVRRSYDSSSGS-NH2)	25.2±4.8 % of cells	19.2±1.5 % of cells	decreased internalization	not altered
CC(C)C[C@H](NC(=O)[C@H](CO)NC(=O)[C@H](CO)NC(=O)[C@H](CO)NC(=O)[C@@H](NC(=O)[C@@H]1CCCN1C(=O)[C@H](C)NC(=O)[C@H](CO)NC(=O)[C@H](Cc1ccc(O)cc1)NC(=O)[C@H](CO)NC(=O)[C@H](CO)NC(=O)[C@H](Cc1ccc(O)cc1)NC(=O)CCCC[C@@H]1SC[C@@H]2NC(=O)N[C@@H]21)C(C)C)C(=O)N[C@@H](CO)C(=O)N[C@H](C(=O)N[C@@H](CCCNC(=N)N)C(=O)N[C@@H](CCCNC(=N)N)C(=O)N[C@@H](CO)C(=O)N[C@@H](Cc1ccc(O)cc1)C(=O)N[C@@H](CO)C(=O)N[C@@H](C)C(=O)N[C@@H](CO)C(=O)N[C@@H](CO)C(=O)NCC(=O)N[C@@H](CO)C(N)=O)C(C)C [Ser20Ala] (Biotin-YSSYSAPVSSSLSVRRSYSASSGS-NH2)	6.4±1.2 % of cells	16.4±6.4 % of cells		
CC(C)C[C@H](NC(=O)[C@H](CO)NC(=O)[C@H](CO)NC(=O)[C@H](CO)NC(=O)[C@@H](NC(=O)[C@@H]1CCCN1C(=O)[C@H](C)NC(=O)[C@H](CO)NC(=O)[C@H](Cc1ccc(O)cc1)NC(=O)[C@H](CO)NC(=O)[C@H](CO)NC(=O)[C@H](Cc1ccc(O)cc1)NC(=O)CCCC[C@@H]1SC[C@@H]2NC(=O)N[C@@H]21)C(C)C)C(=O)N[C@@H](CO)C(=O)N[C@H](C(=O)N[C@@H](CCCNC(=N)N)C(=O)N[C@@H](CCCNC(=N)N)C(=O)N[C@@H](CO)C(=O)N[C@@H](Cc1ccc(O)cc1)C(=O)N[C@@H](CO)C(=O)N[C@@H](CO)C(=O)N[C@@H](C)C(=O)N[C@@H](CO)C(=O)NCC(=O)N[C@@H](CO)C(N)=O)C(C)C [Ser21Ala] (Biotin-YSSYSAPVSSSLSVRRSYSSASGS-NH2)	55.4±5.9 % of cells	31.6±5.1 % of cells		
CC(C)C[C@H](NC(=O)[C@H](CO)NC(=O)[C@H](CO)NC(=O)[C@H](CO)NC(=O)[C@@H](NC(=O)[C@@H]1CCCN1C(=O)[C@H](C)NC(=O)[C@H](CO)NC(=O)[C@H](Cc1ccc(O)cc1)NC(=O)[C@H](CO)NC(=O)[C@H](CO)NC(=O)[C@H](Cc1ccc(O)cc1)NC(=O)CCCC[C@@H]1SC[C@@H]2NC(=O)N[C@@H]21)C(C)C)C(=O)N[C@@H](CO)C(=O)N[C@H](C(=O)N[C@@H](CCCNC(=N)N)C(=O)N[C@@H](CCCNC(=N)N)C(=O)N[C@@H](CO)C(=O)N[C@@H](Cc1ccc(O)cc1)C(=O)N[C@@H](CO)C(=O)N[C@@H](CO)C(=O)N[C@@H](CO)C(=O)N[C@@H](CO)C(=O)NCC(=O)N[C@@H](C)C(N)=O)C(C)C [Ser24Ala] (Biotin-YSSYSAPVSSSLSVRRSYSSSSGA-NH2)	44.3±6.7 % of cells	29.4±0.6 % of cells		
CC(C)C[C@H](NC(=O)[C@H](CO)NC(=O)[C@H](CO)NC(=O)[C@H](CO)NC(=O)[C@@H](NC(=O)[C@@H]1CCCN1C(=O)[C@H](C)NC(=O)[C@H](CO)NC(=O)[C@H](Cc1ccc(O)cc1)NC(=O)[C@H](CO)NC(=O)[C@H](CO)NC(=O)[C@H](C)NC(=O)CCCC[C@@H]1SC[C@@H]2NC(=O)N[C@@H]21)C(C)C)C(=O)N[C@@H](CO)C(=O)N[C@H](C(=O)N[C@@H](CCCNC(=N)N)C(=O)N[C@@H](CCCNC(=N)N)C(=O)N[C@@H](CO)C(=O)N[C@@H](Cc1ccc(O)cc1)C(=O)N[C@@H](CO)C(=O)N[C@@H](CO)C(=O)N[C@@H](CO)C(=O)N[C@@H](CO)C(=O)NCC(=O)N[C@@H](CO)C(N)=O)C(C)C [Tyr1Ala] (Biotin-ASSYSAPVSSSLSVRRSYSSSSGS-NH2)	0 % of cells	24.1±4.6 % of cells		
CC(C)C[C@H](NC(=O)[C@H](CO)NC(=O)[C@H](CO)NC(=O)[C@H](CO)NC(=O)[C@@H](NC(=O)[C@@H]1CCCN1C(=O)[C@H](C)NC(=O)[C@H](CO)NC(=O)[C@H](Cc1ccc(O)cc1)NC(=O)[C@H](CO)NC(=O)[C@H](CO)NC(=O)[C@H](Cc1ccccc1)NC(=O)CCCC[C@@H]1SC[C@@H]2NC(=O)N[C@@H]21)C(C)C)C(=O)N[C@@H](CO)C(=O)N[C@H](C(=O)N[C@@H](CCCNC(=N)N)C(=O)N[C@@H](CCCNC(=N)N)C(=O)N[C@@H](CO)C(=O)N[C@@H](Cc1ccc(O)cc1)C(=O)N[C@@H](CO)C(=O)N[C@@H](CO)C(=O)N[C@@H](CO)C(=O)N[C@@H](CO)C(=O)NCC(=O)N[C@@H](CO)C(N)=O)C(C)C [Tyr1Phe] (Biotin-FSSYSAPVSSSLSVRRSYSSSSGS-NH2)	56.3±2.8 % of cells	41.2±4.0 % of cells		
CC(C)C[C@H](NC(=O)[C@H](CO)NC(=O)[C@H](CO)NC(=O)[C@H](CO)NC(=O)[C@@H](NC(=O)[C@@H]1CCCN1C(=O)[C@H](C)NC(=O)[C@H](CO)NC(=O)[C@H](C)NC(=O)[C@H](CO)NC(=O)[C@H](CO)NC(=O)[C@H](Cc1ccc(O)cc1)NC(=O)CCCC[C@@H]1SC[C@@H]2NC(=O)N[C@@H]21)C(C)C)C(=O)N[C@@H](CO)C(=O)N[C@H](C(=O)N[C@@H](CCCNC(=N)N)C(=O)N[C@@H](CCCNC(=N)N)C(=O)N[C@@H](CO)C(=O)N[C@@H](Cc1ccc(O)cc1)C(=O)N[C@@H](CO)C(=O)N[C@@H](CO)C(=O)N[C@@H](CO)C(=O)N[C@@H](CO)C(=O)NCC(=O)N[C@@H](CO)C(N)=O)C(C)C [Tyr4Ala] (Biotin-YSSASAPVSSSLSVRRSYSSSSGS-NH2)	5.3±2.4 % of cells	24.4±4.6 % of cells		

— article PMC3494675, “Structure-Function Analysis of the Glioma Targeting NFL-TBS.40-63 Peptide Corresponding to the Tubulin-Binding Site on the Light Neurofilament Subunit” (PLoS ONE, 2012)
